In brackets after ≈: the same amount, converted by molar mass. Where two headings read alike, the source gives them in different places.
Experiments:
[1] = Solubility in Labrasol and TPGS/PG formulations; assay type: physicochemical
Procedure: Selected lipophilic carbonate compounds of formula I with promising Caco-2 permeabilities are formulated with different lipids/lipophilic excipients and/or micelles forming compounds in order to increase their solubilities. The following formulations are prepared by mixing the ingredients mentioned below: • i) Formulations comprising solubilizers in the form of lipides/lipophilic excipients: • ia) Formulation comprising Labrasol® and the selected compounds of Formula I • Labrasol®: • Caprylocaproyl macrogol-8-glyceride (CAS No. 85536-07-8 and 84963-88-2). This is a mixture of mono-, di- and triesters of glycerol and of PEG 400 with medium-chain fatty acids (C8-C10) which is marketed, for example, by Gattefossé under the mark Labrasol®; Labrasol® has an HLB value (hydrophil-lipophil-balance, Griffin, W. C.: Classification of surface active agents by HLB, J. Soc. Cosmet. 1, 1949) of 14 and has the following composition by weight:
• ib) Formulation comprising NanoSolve® 5401 (Lipoid GmbH, Germany) and the selected compounds of formula I • ic) Formulation comprising TPGS/PG in a weight ratio of 25% by weight of TPGS to 75% by weight of PG and the selected compounds of formula I. • PG: propylene glycol • TPGS: Vitamin E TPGS NF (d-α-tocopheryl polyethylene glycol 1000 succinate) which is marketed, for example, by Eastman Chemical Co • ii) Formulation comprising a micelles forming agent: • iia) Aqueous formulation comprising 30% by weight of Cremophor® RH 40 (relating to the weight of the aqueous phase) in water and the selected compounds of formula I • Cremophor® RH 40: • Generic names: • Polyoxyl 40 Hydrogenated Castor Oil (USP/NF). • Macrogol-Glycerolhydroxystearat (DAB). • Polyoxyethylenglyceroltrihydroxystearat (DAC). • Cremophor RH 40 is a non-ionic solubilizer and emulsifying agent obtained by reacting 45 moles of ethylene oxide with 1 mole of hydrogenated castor oil. The main constituent of Cremophor RH 40 is glycerol polyethylene glycol oxystearate, which, together with fatty acid glycerol polyglycol esters, forms the hydrophobic part of the product. The hydrophilic part consists of polyethylene glycols and glycerol ethoxylate. Cremophor RH 40 is a white to yellowish thin paste at 20° C. The HLB value lies between 14 and 16. Cremophor RH 40 is marketed by BASF AG.
The solubility of selected compounds of formula I in these formulations is measured and compared to the solubility of the compounds in 0.1N HCl (pH 1.0), PBS buffer (pH 7.4), and two simulated gastric fluids (i.e., FaSSIF (pH 6.5) simulating fasting sate and FeSSIF (pH 5.0) simulating fed state) (see above for details).

[2] = Stability of Labrasol formulations in simulated gastric fluid (precipitate formation); assay type: physicochemical; details: for Precipitate formation, directly after addition: 3 mg in 1.5 mL Labrasol added to 10 mL SGF, visual inspection; for Precipitate formation, 5 min / Precipitate formation, 15 min / Precipitate formation, 30 min / Precipitate formation, 60 min / Precipitate formation, 24 h: Labrasol solution in SGF
Procedure: Simulated gastric fluid (SGF) is prepared as follows. 200 mg NaCl are dissolved in 70 mL H2O. 0.7 mL concentrated HCl is added. Subsequently, 320 mg of pepsin powder is added, and the mixture is filled up to 100 mL with H2O. A clear solution is obtained (pH 1-2).
1.5 mL of Labrasol® is added to 3 mg of the respective compound of formula I, and the obtained solutions are shaken. Subsequently, each of the solutions is added to 10 mL SGF by drop-wise addition. Precipitate formation is determined by visual inspection of each solution immediately after the addition of the solution comprising the respective compound of formula I in Labrasol® to SGF and after 5, 15, 30, and 60 min, and 24 h.

[3] = Pharmacokinetic profile of compound 15 in Labrasol, TPGS/PG or phosphate buffer in rats; assay type: in vivo, Male Sprague-Dawley rats; details: oral 10 mg/kg entacapone equivalents, FIG. 1
Procedure: The pharmacokinetics of compound 15 in rats following oral administration is tested as described in Table 15 below.
The results are summarized in FIG. 1 (The symbols in FIG. 1 have the following meanings: c (ng/mL) concentration in ng/mL, t (min) time in minutes). […] Entacapone concentration is shown in ng/mL, and time is shown in minutes.

[4] = Permeability in Caco-2 cells, apical to basolateral; assay type: in vitro ADME; parameters: dose or concentration left out as unconfirmed; details: human; 21d Caco-2 monolayer, apical pH 6.5 to basolateral pH 7.4, 60 minutes
In short: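 21-day Caco-2 monolayers dosed apically at 20 mM nominal test item concentration, apical pH 6.5, basolateral pH 7.4. Basolateral receiver sampled after 60 min and quantified by HPLC or LC-MS/MS; ³H-propranolol and ³H-mannitol controls sampled at 120 min and measured by scintillation.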

[5] = Labrasol, oil or lipid, read-out: Solubility Labrasol ®
[6] = organic solvent or mixture, 25% by weight TPGS, 75% by weight PG, read-out: Solubility TPGS/PG

solubility [1, 5] [µg/mL]	solubility [1, 6] [µg/mL]	Precipitate formation, directly after addition ([2]; after shaking)	Precipitate formation, directly after addition ([2]; initially, before shaking)	Precipitate formation, 5 min [2]	Precipitate formation, 15 min [2]	Precipitate formation, 30 min [2]	Precipitate formation, 60 min [2]	Precipitate formation, 24 h [2]	plasma level of entacapone formed, compared with phosphate buffer formulation ([3]; Labrasol formulation)	plasma level of entacapone formed, compared with phosphate buffer formulation ([3]; TPGS/PG formulation)	Papp A→B at 60 min [4] [×10⁻⁶ cm/s]	SMILES
50000 (≈ 108 mM)	2400 (≈ 5.2 mM)	clear after shaking	First: white precipitate;	clear	clear	clear	clear	clear	more constant	more constant		CCCCC(CC)COC(=O)Oc1cc(/C=C(\C#N)C(=O)N(CC)CC)cc([N+](=O)[O-])c1O (stereo not shown) [Compound 15, Carbonic acid 5-((E)-2-cyano-2-diethylcarbamoyl-vinyl)-2-hydroxy-3-nitro-phenyl ester 2-ethyl-hexyl ester]
> 36000	2300 (≈ 4.98 mM)	clear after shaking	First: white precipitate;	clear	clear	clear	clear	clear			> 42	CCCCCCCCOC(=O)Oc1cc(/C=C(\C#N)C(=O)N(CC)CC)cc([N+](=O)[O-])c1O [Compound 35, Carbonic acid 5-((E)-2-cyano-2-diethylcarbamoyl-vinyl)-2-hydroxy-3-nitro-phenyl ester octyl ester]
22000 (≈ 49.4 mM)	2500 (≈ 5.61 mM)	clear after shaking	First: white precipitate;	clear	clear	clear	clear	clear			55	CCN(CC)C(=O)/C(C#N)=C/c1cc(OC(=O)OCC2CCCCC2)c(O)c([N+](=O)[O-])c1 [Compound 57, Carbonic acid 5-((E)-2-cyano-2-diethylcarbamoyl-vinyl)-2-hydroxy-3-nitro-phenyl ester cyclohexylmethyl ester]
10000 (≈ 23.8 mM)	1800 (≈ 4.29 mM)	clear after shaking	First: white precipitate;	clear	clear	clear	clear	clear				CCCC(C)OC(=O)Oc1cc(/C=C(\C#N)C(=O)N(CC)CC)cc([N+](=O)[O-])c1O (stereo not shown) [Compound 63, Carbonic acid 5-((E)-2-cyano-2-diethylcarbamoyl-vinyl)-2-hydroxy-3-nitro-phenyl ester 1-methyl-butyl ester]
